Source: patent US20170189372A1, “USE OF SUBSTITUTED CHROMAN COMPOUNDS” (INSTYTUT BIOLOGII MEDYCZNEJ, priority 2014, published 2017)

Tests used:
[1] = tested on: reporter cell line for IL-2 (EL-4 cells); test: FCC primary screening with IL-2 reporter cells; assay type: cell-based, mouse; conditions: relative viability×(relative fluorescence−100); PMA and ionomycin activated, compound 0.4 μg/ml, 18 h
Experimental: (§1) Development of reporter cell lines was described previously (Ulleras, E., D. Trzaska, et al. (2005); “Development of the “Cell Chip”: a new in vitro alternative technique for immunotoxicity testing”, Toxicology 206(2): 245-56). Briefly, EL-4 cells were stably transfected with transgene consisting of promoter regions from mouse β-actin, interleukin-2 (IL-2), interleukin-4 (IL-4), interferon-γ (IFN-γ), and interleukin-10 (IL-10) and ORF for EGFP. Reporter cells were cultured at density 5×10^5-1×10^6 cells/ml in a humidified atmosphere with 5% CO2 at 37° C. in RPMI 1640 with Glutamax supplemented with 20% FCS and 0.5 μg/ml G418.
(§2) When applicable, cells and reagents handling was performed by JANUS Automated Workstation (PerkinElmer, Waltham, Mass., USA). Cells were seeded at a density of 5×10^4 per well in 96-well plates. In the primary screening reporter cells for IL-2 activated with PMA (50 ng/ml) and ionomycin (1 μM) were seeded in a 96-well plate and incubated with compounds from the chemical library in a total volume of 100 μL at 37° C. in a humidified atmosphere with 5% CO2 for 18 h. Concentration of compounds was 0.4 μg/ml. The final DMSO concentration was 0.2%, DMSO is not cytotoxic towards EL-4 reporter cells at this concentration. Control samples consisted of cells in medium with 0.2% DMSO with PMA (50 ng/ml) and ionomycin (1 μM). Following incubation cells were analyzed by flow cytometry. Viability was assessed in parallel to the level of EGFP-mediated fluorescence.
Selection of compounds was based on FCC parameters calculated using the following formula:
FCC parameter=relative viability×(relative fluorescence−100)
(§3) Compounds after primary screening were considered to be hits when FCC parameter calculated after primary screening was ≦−5000. After secondary screening area under the curve (A) of FCC parameter versus relative concentration was calculated (maximum concentration used, i.e. 50 μg/ml, was assumed to be 1).

[2] = tested on: reporter cell line for β-actin (EL-4 cells); test: FCC test, expanded version, β-actin reporter cell line; assay type: cell-based, mouse; conditions: PMA and ionomycin, 1.56 to 50 μg/ml, 50 μg/ml assumed to be 1
Experimental: as §1
as §3, with “1). […]” for “1).”
(§4) Flavonoids selected after preliminary screening were undergoing FCC testing using 5 reporter cell lines: for β-actin, interleukin-2 (IL-2), interleukin-4 (IL-4), interferon-γ (IFN-γ) and interleukin-10 (IL-10). The tested concentrations were in the range from 1.56 to 50 μg/ml.
(§5) Using flow cytometry mean fluorescence intensity (columns, left Y axis) and cell viability (dots, the right Y-axis) was determined for all the experimental points and normalized relative to the control—cells incubated with medium with PMA and ionomycin. The data is the mean of the three experiments ±SEM. The statistical significance of differences between means were determined: * p<0.05, ** p<0.01, *** p<0.001 versus control. Values above the graph represent the area under the curve showing the relationship of the FCC parameter and the relative compound concentration.

[3] = tested on: reporter cell line for interleukin-10 (EL-4 cells); test: FCC test, expanded version, IL-10 reporter cell line; assay type: cell-based, mouse; conditions: IL-10 reporter line; PMA and ionomycin; 1.56 to 50 μg/ml, 50 μg/ml assumed to be 1
Experimental: as §1
as §3, with “1). […]” for “1).”
as §4, §5

[4] = tested on: reporter cell line for interleukin-4 (EL-4 cells); test: FCC test, expanded version, IL-4 reporter cell line; assay type: cell-based, mouse; conditions: for The area under the curve showing the relationship between the FCC parameter and compound concentration, IL-4: IL-4 reporter line, PMA and ionomycin, 1.56 to 50 μg/ml, 50 μg/ml assumed to be 1
Experimental: as §1
as §3, with “1). […]” for “1).”
as §4, §5

[5] = tested on: reporter cell line for interleukin-2 (EL-4 cells); test: FCC test, expanded version, IL-2 reporter cell line; assay type: cell-based, mouse; conditions: for The area under the curve showing the relationship between the FCC parameter and compound concentration, IL-2: IL-2 reporter line, PMA and ionomycin, 1.56 to 50 μg/ml, 50 μg/ml assumed to be 1
Experimental: as §1
as §3, with “1). […]” for “1).”
as §4, §5

[6] = tested on: IL-2 production by Jurkat cells; test: ELISA for IL-2 in Jurkat cells; assay type: cell-based; conditions: for inhibition at 10 µg/mL / inhibition at 50 µg/mL: Homo sapiens, Jurkat cells, PMA and ionomycin, 24 hours; for inhibition at 10 µg/mL: 10 μg/ml; for inhibition at 50 µg/mL: 50 μg/ml
Experimental: Jurkat cells were seeded in 48-well plates at a concentration of 1 million/ml. Cells activated with PMA (50 ng/ml) and ionomycin (1 uM) or resting were incubated with 50 selected flavonoids in a concentration of 10 μg/ml and 50 μg/ml for 24 hours in a humidified atmosphere with 5% CO 2 at 37° C. As a control, the respective cells in the medium or in a medium with PMA and ionomycin were employed. After incubation, cells were centrifuged (8 minutes, 1300 rpm), and the cell-free supernatants were stored at −20° C. until measurements. IL-2 was assessed using a commercially available ELISA kits according to the manufacturer's instructions. Each experiment was repeated 3 times.
FCC assay and ELISA assay were repeated three times. Relative data were presented as the means±SEM. […] Statistical significance of differences observed in both assays was tested with ANOVA followed by post hoc Dunnett test using GraphPad software (La Jolla, Calif., USA). In statistical analysis non-relative data were used

[7] = tested on: reporter cell line for interferon-γ (EL-4 cells); test: FCC test, expanded version, IFN-γ reporter cell line; assay type: cell-based, mouse; conditions: PMA and ionomycin, 1.56 to 50 μg/ml, 50 μg/ml assumed to be 1
Experimental: as §1
as §3, with “1). […]” for “1).”
as §4, §5

[8] = tested on: reporter cell line EL-4; test: Viability of reporter cells in FCC assay; assay type: cell-based, mouse; conditions: at concentrations up to 25 mg/ml
Experimental: as §2
as §5, with “Values above the graph represent the area under the curve showing the relationship of the FCC parameter and the relative compound concentration.” left out

SMILES | FCC parameter (IL-2 screening) [1] | The area under the curve showing the relationship between the FCC parameter and compound concentration, AKT [2] | The area under the curve showing the relationship between the FCC parameter and compound concentration, IL-10 [3] | The area under the curve showing the relationship between the FCC parameter and compound concentration, IL-4 [4] | The area under the curve showing the relationship between the FCC parameter and compound concentration, IL-2 [5] | inhibition at 10 µg/mL [6] [%] | inhibition at 50 µg/mL [6] [%] | The area under the curve showing the relationship between the FCC parameter and compound concentration, IFN [7] | cytotoxicity in the reporter cell line EL-4 [8] | decrease in EGFP-mediated fluorescence ([4]; reporter cell line for IL 4, 25 μg/ml) | inhibition of PMA and ionomycin induced EGFP-mediated fluorescence (in words) ([5]; FCC test, reporter cell lines not specified, judged by area under the curve) | decrease in EGFP-mediated fluorescence ([5]; reporter cell line for IL-2, 25 μg/ml) | inhibition of PMA and ionomycin induced IL-2 production by ELISA (in words) ([6]; concentration not given)
COc1cccc(C2CC(=O)c3ccccc3O2)c1OC (stereo not shown) [Compound 10, 2-(2,3-dimethoxyphenyl)chroman-4-one] | −6685 | 118 | −1336 | −946 | −2244 | 32 | 97 | −3142 | – | – | – | – | –
COc1ccc2c(c1)OC(c1ccccc1)CC2=O (stereo not shown) [Compound 11, 7-methoxy-2-phenylchroman-4-one] | −6917 | −754 | −777 | −1499 | −3670 | 35 | 97 | −3975 | – | – | – | – | –
CC(=O)Oc1cc2c(cc1Cl)C(C)(C)CC(C)(c1cc(Cl)c(OC(C)=O)cc1OC(C)=O)O2 (stereo not shown) [Compound 12, 2-(2,4-diacetyloxy-5-chlorophenyl)-6-chloro-2,4,4-trimethylchroman-7-yl acetate] | −7615 | −2936 | – | – | – | 100 | 83 | – | not cytotoxic | more than 90% | highest inhibition | more than 90% | strongly inhibited
